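Results reflect a 48-hour exposure of cells in 96-well plates to compound at five concentrations. Here, GI50 denotes the concentration required for 50% inhibition of growth.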 Active and inactive are the calls of the source. Cut-off read from the data, not from the text of the source: active = GI50 up to about 1.1 µM and inactive = higher.
Key:
Test in all cases: growth of human tumour cells (NCI), 48 h
HT-29 = test system: HT-29
NCI-H226 = test system: NCI-H226
UO-31 = test system: UO-31
786-0 = test system: 786-0
ACHN = test system: ACHN
IGROV-1 = test system: IGROV-1
KM12 = test system: KM12
OVCAR-8 = test system: OVCAR-8
SF-268 = test system: SF-268
SK-MEL-5 = test system: SK-MEL-5
NCI-H460 = test system: NCI-H460
Malme-3M = test system: Malme-3M
NCI-H23 = test system: NCI-H23
TK-10 = test system: TK-10
HCT-15 = test system: HCT-15
HOP-18 = test system: HOP-18
KM-20L2 = test system: KM-20L2
SW-620 = test system: SW-620
DMS-273 = test system: DMS-273
OVCAR-5 = test system: OVCAR-5
HOP-92 = test system: HOP-92
LOX IMVI = test system: LOX IMVI
K562 = test system: K562
HL-60 = test system: HL-60
DMS-114 = test system: DMS-114
RPMI-8226 = test system: RPMI-8226
SNB-19 = test system: SNB-19
OVCAR-3 = test system: OVCAR-3
SK-OV-3 = test system: SK-OV-3
SK-MEL-2 = test system: SK-MEL-2
NCI-H522 = test system: NCI-H522
CCRF-CEM = test system: CCRF-CEM
COLO 205 = test system: COLO 205
SF-539 = test system: SF-539
SR = test system: SR
XF498 = test system: XF498
M14 = test system: M14
UACC-257 = test system: UACC-257
EKVX = test system: EKVX
A549 = test system: A549
SK-MEL-28 = test system: SK-MEL-28
DLD-1 = test system: DLD-1
HOP-62 = test system: HOP-62
SF-295 = test system: SF-295
UACC-62 = test system: UACC-62
RXF 393 = test system: RXF 393
SNB-78 = test system: SNB-78
OVCAR-4 = test system: OVCAR-4
CAKI-1 = test system: CAKI-1
SNB-75 = test system: SNB-75
LXFL 529 = test system: LXFL 529
M19-MEL = test system: M19-MEL
SN12C = test system: SN12C
MOLT-4 = test system: MOLT-4
HCT-116 = test system: HCT-116
A498 = test system: A498
U-251 = test system: U-251
HCC 2998 = test system: HCC 2998
RXF 631 = test system: RXF 631

COC(=O)c1c/c(=N\NC(=O)CC(=O)Nc2ccc(C)cc2)c2ccccc2o1
GI50 (HT-29): > 100 µM (inactive)
GI50 (NCI-H226): > 100 µM (inactive)
GI50 (UO-31): > 100 µM (inactive)
GI50 (786-0): > 100 µM (inactive)
GI50 (ACHN): > 100 µM (inactive)
GI50 (IGROV-1): > 100 µM (inactive)
GI50 (KM12): > 100 µM (inactive)
GI50 (OVCAR-8): > 100 µM (inactive)
GI50 (SF-268): > 100 µM (inactive)
GI50 (SK-MEL-5): > 100 µM (inactive)
GI50 (NCI-H460): > 100 µM (inactive)
GI50 (Malme-3M): > 100 µM (inactive)
GI50 (NCI-H23): > 100 µM (inactive)
GI50 (TK-10): > 100 µM (inactive)
GI50 (HCT-15): > 100 µM
GI50 (HOP-18): > 100 µM (inactive)
GI50 (KM-20L2): > 100 µM (inactive)
GI50 (SW-620): > 100 µM (inactive)
GI50 (DMS-273): > 100 µM (inactive)
GI50 (OVCAR-5): > 100 µM (inactive)
GI50 (HOP-92): > 100 µM (inactive)
GI50 (LOX IMVI): > 100 µM (inactive)
GI50 (K562): > 100 µM (inactive)
GI50 (HL-60): > 100 µM (inactive)
GI50 (DMS-114): > 100 µM (inactive)
GI50 (RPMI-8226): > 100 µM (inactive)
GI50 (SNB-19): > 100 µM (inactive)
GI50 (OVCAR-3): > 100 µM (inactive)
GI50 (SK-OV-3): > 100 µM (inactive)
GI50 (SK-MEL-2): > 100 µM (inactive)
GI50 (NCI-H522): > 100 µM (inactive)
GI50 (CCRF-CEM): > 100 µM (inactive)
GI50 (COLO 205): > 100 µM (inactive)
GI50 (SF-539): > 100 µM (inactive)
GI50 (SR): > 100 µM (inactive)
GI50 (XF498): > 100 µM (inactive)
GI50 (M14): > 100 µM (inactive)
GI50 (UACC-257): > 100 µM (inactive)
GI50 (EKVX): > 100 µM (inactive)
GI50 (A549): > 100 µM (inactive)
GI50 (SK-MEL-28): > 100 µM (inactive)
GI50 (DLD-1): > 100 µM (inactive)
GI50 (HOP-62): > 100 µM (inactive)
GI50 (SF-295): > 100 µM (inactive)
GI50 (UACC-62): > 100 µM (inactive)
GI50 (RXF 393): > 100 µM (inactive)
GI50 (SNB-78): > 100 µM (inactive)
GI50 (OVCAR-4): > 100 µM (inactive)
GI50 (CAKI-1): > 100 µM (inactive)
GI50 (SNB-75): > 100 µM (inactive)
GI50 (LXFL 529): > 100 µM (inactive)
GI50 (M19-MEL): > 100 µM (inactive)
GI50 (SN12C): > 100 µM (inactive)
GI50 (MOLT-4): > 100 µM (inactive)
GI50 (HCT-116): > 100 µM (inactive)
GI50 (A498): > 100 µM (inactive)
GI50 (U-251): > 100 µM (inactive)

CC(=O)OC1C(COC(N)=O)OC(n2c(-c3ccc(C)cc3)cc(-c3ccccc3)c(C#N)c2=O)C(OC(C)=O)C1OC(C)=O (stereo not drawn)
GI50 (HT-29): > 100 µM (inactive)
GI50 (HCC 2998): 53.7 µM (inactive)
GI50 (NCI-H226): > 100 µM (inactive)
GI50 (UO-31): 71.9 µM (inactive)
GI50 (786-0): > 100 µM (inactive)
GI50 (ACHN): > 100 µM (inactive)
GI50 (IGROV-1): > 100 µM (inactive)
GI50 (KM12): > 100 µM (inactive)
GI50 (OVCAR-8): > 100 µM (inactive)
GI50 (SF-268): > 100 µM (inactive)
GI50 (SK-MEL-5): > 100 µM (inactive)
GI50 (NCI-H460): 96.2 µM (inactive)
GI50 (Malme-3M): > 100 µM (inactive)
GI50 (NCI-H23): > 100 µM (inactive)
GI50 (TK-10): > 100 µM (inactive)
GI50 (HCT-15): > 100 µM
GI50 (HOP-18): > 100 µM (inactive)
GI50 (KM-20L2): > 100 µM (inactive)
GI50 (SW-620): > 100 µM (inactive)
GI50 (DMS-273): > 100 µM (inactive)
GI50 (OVCAR-5): > 100 µM (inactive)
GI50 (HOP-92): 9.86 µM (inactive)
GI50 (LOX IMVI): > 100 µM (inactive)
GI50 (K562): > 100 µM (inactive)
GI50 (RPMI-8226): > 100 µM (inactive)
GI50 (SNB-19): > 100 µM (inactive)
GI50 (OVCAR-3): > 100 µM (inactive)
GI50 (SK-OV-3): > 100 µM (inactive)
GI50 (SK-MEL-2): > 100 µM (inactive)
GI50 (NCI-H522): > 100 µM (inactive)
GI50 (CCRF-CEM): > 100 µM (inactive)
GI50 (COLO 205): > 100 µM (inactive)
GI50 (SF-539): > 100 µM (inactive)
GI50 (SR): > 100 µM (inactive)
GI50 (M14): > 100 µM (inactive)
GI50 (UACC-257): > 100 µM (inactive)
GI50 (EKVX): > 100 µM (inactive)
GI50 (A549): > 100 µM (inactive)
GI50 (SK-MEL-28): > 100 µM (inactive)
GI50 (DLD-1): > 100 µM (inactive)
GI50 (HOP-62): > 100 µM (inactive)
GI50 (SF-295): > 100 µM (inactive)
GI50 (UACC-62): > 100 µM (inactive)
GI50 (RXF 393): > 100 µM (inactive)
GI50 (SNB-78): > 100 µM (inactive)
GI50 (OVCAR-4): > 100 µM (inactive)
GI50 (CAKI-1): > 100 µM (inactive)
GI50 (SNB-75): 44 µM (inactive)
GI50 (LXFL 529): > 100 µM (inactive)
GI50 (M19-MEL): > 100 µM (inactive)
GI50 (SN12C): > 100 µM (inactive)
GI50 (MOLT-4): > 100 µM (inactive)
GI50 (RXF 631): > 100 µM (inactive)
GI50 (HCT-116): > 100 µM (inactive)
GI50 (A498): > 100 µM (inactive)
GI50 (U-251): > 100 µM (inactive)

From ChEMBL document CHEMBL1201862, “PubChem BioAssay data set” (2004)
